pKi: −log10 of the molar value.
biological target: Btk (Homo sapiens, UniProt Q06187); assay: Btk TR-FRET kinase inhibition assay; format: biochemical; settings: pH 7.4, ATP at the Km for the kinase, 1 μM peptide substrate, [Btk]total=0.5 nM, read-out: Btk-TRFRET (Ki)
Procedure: Suitable in vitro assays for measuring kinase activity and the inhibition thereof by compounds are known (e.g., see Kuzmic et al. Anal. Biochem. 2000, 286, 45-50).
The following protocol represents an assay for determination of inhibition of kinases under physiological conditions (pH 7.4). Kinase activity was determined using a time-resolved fluorescence resonance energy transfer (TR-FRET) methodology. Measurements were performed in a reaction volume of 50 μL using 96-well assay plates. Kinase enzyme, inhibitor, ATP (at the Km for the kinase), and 1 μM peptide substrate (Biotin-AVLESEEELYSSARQ-NH2) were incubated in a reaction buffer composed of 20 mM Tris, 50 mM NaCl, MgCl2 (5-25 mM depending on the kinase), 1 mM DTT, 0.1 mM EDTA, 0.01% bovine serum albumin, 0.005% Tween-20, and 10% DMSO at pH 7.4 for one hour. The reaction was quenched by the addition of 1.2 equivalents of EDTA (relative to Mg^2+) in 25 μL of 1× Lance buffer (Perkin-Elmer). Streptavidin-APC (Perkin-Elmer) and Eu-labeled p-Tyr100 antibody (Perkin-Elmer) in 1× Lance buffer were added in a 25 μL volume to give final concentrations of 100 nM and 2.5 nM, respectively, and the mixture was allowed to incubate for one hour. The TR-FRET signal was measured on a multimode plate reader with an excitation wavelength of 330 nm and detection wavelengths of 615 nm and 665 nm. Activity was determined by the ratio of the fluorescence at 665 nm to that at 615 nm. For each compound, enzyme activity was measured at various concentrations of compound. Negative control reactions were performed in the absence of inhibitor in replicates of six, and two no-enzyme controls were used to determine baseline fluorescence levels. Inhibition constants were obtained using the program BatchKi (Kuzmic et al. Anal. Biochem. 2000, 286, 45-50). IC50s were obtained according to this equation: IC50={Ki(app)/(1+[ATP]/Km^ATP)}+[E]total/2; for all kinases, [ATP]=Km^ATP, [Btk]total=0.5 nM and [Lck]total=6 nM.

Sequence of Btk (Q06187 whole entry): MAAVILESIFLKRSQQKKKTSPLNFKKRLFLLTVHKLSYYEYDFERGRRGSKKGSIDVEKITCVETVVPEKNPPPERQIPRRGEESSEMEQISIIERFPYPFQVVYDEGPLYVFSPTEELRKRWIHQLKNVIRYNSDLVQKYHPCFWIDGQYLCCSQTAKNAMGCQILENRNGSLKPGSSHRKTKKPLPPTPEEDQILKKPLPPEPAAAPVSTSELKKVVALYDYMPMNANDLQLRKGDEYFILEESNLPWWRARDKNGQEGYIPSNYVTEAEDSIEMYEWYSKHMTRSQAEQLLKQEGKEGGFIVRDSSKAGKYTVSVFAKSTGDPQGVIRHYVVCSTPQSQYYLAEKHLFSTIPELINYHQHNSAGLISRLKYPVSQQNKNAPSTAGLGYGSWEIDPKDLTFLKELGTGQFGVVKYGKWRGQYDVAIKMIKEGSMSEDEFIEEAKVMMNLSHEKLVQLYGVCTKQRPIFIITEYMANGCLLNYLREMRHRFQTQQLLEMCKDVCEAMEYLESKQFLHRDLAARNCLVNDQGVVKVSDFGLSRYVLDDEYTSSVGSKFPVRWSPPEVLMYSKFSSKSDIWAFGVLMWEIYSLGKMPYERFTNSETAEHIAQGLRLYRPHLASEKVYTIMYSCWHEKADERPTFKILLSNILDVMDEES

Structure (SMILES)	pKi
CCC(=O)N1CCN(CC=Cc2[nH]c(=O)c3c(ccc4nc(Nc5ccc(F)cc5C)n(C)c43)c2C)CC1 [Compound 33, 2-(4-fluoro-2-methylphenylamino)-1,6-dimethyl-7-[3-(N-ethylcarbonylpiperazin-1-yl)-propenyl]-1,8-dihydro-imidazo[4,5-h]isoquinolin-9-one]	> 7.00
Cc1cc(F)ccc1Nc1nc2ccc3c(C)c(C=CCN4CCN(S(=O)(=O)C(C)C)CC4)[nH]c(=O)c3c2n1C [Compound 34, 2-(4-fluoro-2-methylphenylamino)-1,6-dimethyl-7-[3-(N-(isopropylsulfonyl)-piperazin-1-yl)-propenyl]-1,8-dihydro-imidazo[4,5-h]isoquinolin-9-one]	> 7.00
CCS(=O)(=O)N1CCN(CC=Cc2[nH]c(=O)c3c(ccc4nc(Nc5ccc(F)cc5C)n(C)c43)c2C)CC1 [Compound 35, 2-(4-fluoro-2-methylphenylamino)-1,6-dimethyl-7-[3-(N-(ethylsulfonyl)-piperazin-1-yl)-propenyl]-1,8-dihydro-imidazo[4,5-h]isoquinolin-9-one]	> 7.00
Cc1c(C(O)C#Cc2ccccc2)[nH]c(=O)c2c1ccc1nc(Nc3c(Cl)cccc3Cl)n(C)c12 (stereo not drawn) [Compound 41, 2-(2,6-dichlorophenylamino)-1,6-dimethyl-7-(1-hydroxy-3-phenylprop-2-yn-1-yl)-1,8-dihydro-imidazo[4,5-h]isoquinolin-9-one]	6.00 to 7.00
C#CCN(C)CC=Cc1[nH]c(=O)c2c(ccc3nc(Nc4ccc(F)cc4C)n(C)c32)c1C [Compound 43, 2-(4-fluoro-2-methylphenylamino)-1,6-dimethyl-7-[3-(N-methyl-N-(prop-2-ynyl)amino)prop-1-enyl]-1,8-dihydro-imidazo[4,5-h]isoquinolin-9-one]	> 7.00
Cc1c(/C=N/O)[nH]c(=O)c2c1ccc1nc(Nc3c(Cl)cccc3Cl)n(C)c12 [Compound 44, 2-(2,6-dichlorophenylamino)-1,6-dimethyl-9-oxo-8,9-dihydro-1H-imidazo[4,5-h]isoquinoline-7-carbaldehyde oxime]	> 7.00
COc1ccccc1C(=O)NN=Cc1[nH]c(=O)c2c(ccc3nc(Nc4c(Cl)cccc4Cl)n(C)c32)c1C [Compound 49, 2-methoxy-benzoic acid [2-(2,6-dichlorophenylamino)-1,6-dimethyl-9-oxo-8,9-dihydro-1H-imidazo[4,5-h]isoquinolin-7-ylmethylene]-hydrazide]	6.00 to 7.00
Cc1cc(F)ccc1Nc1nc2ccc3c(CC(=O)N4CCP(=O)(c5ccc(F)cc5)CC4)c(C)[nH]c(=O)c3c2n1C [Compound 50, 2-(4-fluoro-2-methylphenylamino)-1,7-dimethyl-6-{2-[4-(4-fluorophenyl)-4-oxo-4λ^5[1,4]azaphosphinan-1-yl]-2-oxoethyl}-1,8-dihydro-imidazo[4,5-h]isoquinolin-9-one]	6.00 to 7.00

Next, values leading:

pKi	Structure (SMILES)
> 7.00	Cc1cc(F)ccc1Nc1nc2ccc3c(C)c(C=CCN4CCN(S(=O)(=O)N(C)C)CC4)[nH]c(=O)c3c2n1C [Compound 32, 2-(4-fluoro-2-methylphenylamino)-1,6-dimethyl-7-[3-(N—(N,N-dimethylaminosulfonyl)-piperazin-1-yl)-propenyl]-1,8-dihydro-imidazo[4,5-h]isoquinolin-9-one]
> 7.00	Cc1cc(F)ccc1Nc1nc2ccc3c(C)c(C=CCN4CCN(C(=O)C(C)C)CC4)[nH]c(=O)c3c2n1C [Compound 36, 2-(4-fluoro-2-methylphenylamino)-1,6-dimethyl-7-[3-(N-isopropylcarbonylpiperazin-1-yl)-propenyl]-1,8-dihydro-imidazo[4,5-h]isoquinolin-9-one]
> 7.00	Cc1c(C=CS(=O)(=O)c2ccccc2)[nH]c(=O)c2c1ccc1nc(Nc3c(Cl)cccc3Cl)n(C)c12 [Compound 37, 2-(2,6-dichlorophenylamino)-1,6-dimethyl-7-[2-(phenylsulfonyl)-ethenyl]-1,8-dihydro-imidazo[4,5-h]isoquinolin-9-one]
< 6.00	Cc1c(C(O)C(F)(F)c2cn(Cc3ccccc3)nn2)[nH]c(=O)c2c1ccc1nc(Nc3c(Cl)cccc3Cl)n(C)c12 (stereo not drawn) [Compound 40, 2-(2,6-dichlorophenylamino)-1,6-dimethyl-7-[2,2-difluoro-1-hydroxy-2-(N-phenylmethyl-[1,2,3]triazol-4-yl)-ethyl]-1,8-dihydro-imidazo[4,5-h]isoquinolin-9-one]
> 7.00	C#CCN(C)CC=Cc1[nH]c(=O)c2c(ccc3nc(Nc4c(Cl)cccc4Cl)n(C)c32)c1C [Compound 42, 2-(2,6-dichlorophenylamino)-1,6-dimethyl-7-[3-(N-methyl-N-(prop-2-ynyl)amino)prop-1-enyl]-1,8-dihydro-imidazo[4,5-h]isoquinolin-9-one]
6.00 to 7.00	Cc1c(C=NNC(=O)c2ccccc2)[nH]c(=O)c2c1ccc1nc(Nc3c(Cl)cccc3Cl)n(C)c12 [Compound 45, benzoic acid [2-(2,6-dichlorophenylamino)-1,6-dimethyl-9-oxo-8,9-dihydro-1H-imidazo[4,5-h]isoquinolin-7-ylmethylene]-hydrazide]
< 6.00	Cc1c(C=NNC(=O)c2ccc(N(C)C)cc2)[nH]c(=O)c2c1ccc1nc(Nc3c(Cl)cccc3Cl)n(C)c12 [Compound 46, 4-(N,N-dimethylamino)-benzoic acid [2-(2,6-dichlorophenylamino)-1,6-dimethyl-9-oxo-8,9-dihydro-1H-imidazo[4,5-h]isoquinolin-7-ylmethylene]-hydrazide]
6.00 to 7.00	Cc1c(C=NNC(=O)c2ccccn2)[nH]c(=O)c2c1ccc1nc(Nc3c(Cl)cccc3Cl)n(C)c12 [Compound 47, pyridine-2-carboxylic acid [2-(2,6-dichlorophenylamino)-1,6-dimethyl-9-oxo-8,9-dihydro-1H-imidazo[4,5-h]isoquinolin-7-ylmethylene]-hydrazide]
6.00 to 7.00	Cc1c(C=NNC(=O)c2cccnc2)[nH]c(=O)c2c1ccc1nc(Nc3c(Cl)cccc3Cl)n(C)c12 [Compound 48, pyridine-3-carboxylic acid [2-(2,6-dichlorophenylamino)-1,6-dimethyl-9-oxo-8,9-dihydro-1H-imidazo[4,5-h]isoquinolin-7-ylmethylene]-hydrazide]
6.00 to 7.00	CCC[C@@H](C=CS(=O)(=O)c1ccccc1)NC(=O)Cc1c(C)[nH]c(=O)c2c1ccc1nc(Nc3ccc(F)cc3C)n(C)c12 [Compound 51, (S)-2-(4-fluoro-2-methylphenylamino)-1,7-dimethyl-6-{N-[1-(phenylsulfonyl)hex-1-en-3-yl]-amino-2-oxoethyl}-1,8-dihydro-imidazo[4,5-h]isoquinolin-9-one]

Reference: patent US8067395B2, “Inhibitors of tyrosine kinases and uses thereof” (Pharmacyclics, Inc., priority 2006, dated 2011)
